Patent US20080039442A1, “Compounds With Kv4 Ion Channel Activity” (Devgen NV, priority 2004, published 2008)
Like-named read-outs stand apart in the source and are kept apart here.

How the values were obtained:
human Kv4.3 = molecular target: T1, human Kv4.3 (Homo sapiens, UniProt Q9UK17); test: Electropharyngeogram (EPG) analysis of dissected pharynxes of transgenic C. elegans strain UG1755; type: ex vivo, transgenic C. elegans expressing human Kv4.3
T1 construct: expressed in transfected cells; host or cells: transgenic C. elegans strain UG1755 (plasmid pGV8 integrated; expression in the pharynx)
T1 sequence (Q9UK17 1-655): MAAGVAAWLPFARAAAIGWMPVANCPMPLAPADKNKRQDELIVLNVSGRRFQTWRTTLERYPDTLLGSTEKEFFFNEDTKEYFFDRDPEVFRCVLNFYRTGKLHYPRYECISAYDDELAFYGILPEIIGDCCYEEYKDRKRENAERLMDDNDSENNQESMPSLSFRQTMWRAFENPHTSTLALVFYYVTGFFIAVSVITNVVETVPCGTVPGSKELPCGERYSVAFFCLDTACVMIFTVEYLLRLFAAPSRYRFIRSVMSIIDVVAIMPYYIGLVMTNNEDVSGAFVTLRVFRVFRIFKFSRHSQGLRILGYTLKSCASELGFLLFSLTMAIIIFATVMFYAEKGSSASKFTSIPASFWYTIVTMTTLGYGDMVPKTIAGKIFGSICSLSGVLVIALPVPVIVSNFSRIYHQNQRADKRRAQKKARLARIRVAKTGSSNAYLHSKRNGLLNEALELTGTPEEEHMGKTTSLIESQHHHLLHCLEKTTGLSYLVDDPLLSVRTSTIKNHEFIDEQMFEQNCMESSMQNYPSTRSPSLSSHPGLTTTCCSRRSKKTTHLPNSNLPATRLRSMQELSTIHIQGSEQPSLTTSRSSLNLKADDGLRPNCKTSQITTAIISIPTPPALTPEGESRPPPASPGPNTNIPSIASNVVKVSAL
Method: The method to describe the construction of a transgenic C. elegans strain expressing human Kv4.3 has been described in WO 03/097682. Briefly, the actual used strain UG1755 has been generated by microinjection into the gonad of a wild-type strain N2 with a mix of 5 ng/μl plasmid pGV8 (human Kv4.3), 20 ng/μl pDW2821 (GFP-marker) and 40 ng/μl genomic C. elegans DNA. Transgenic animals have been isolated and submitted to integration of the extra-chromosomal array into the genome of C. elegans. A line with 50% transmission of the functional expressed human Kv4.3 has been mutagenized with gamma irradiation using a Cobalt source. About 12000 F2 animals have been singled out and their progeny has been screened for the 100% transmission of the GFP marker. Lines with 100% transmission of GFP have been considered as potentially integrated. These lines have been further tested and out-crossed with N2 strain two-times. All lines obtained have been tested for viability, GFP and human Kv4.3 expression. At the end of a selection process, UG1755 was identified as most suitable C. elegans strain amenable to high throughput screening (HTS). […] Briefly, dissected pharynxes of UG1755 C. elegans animals have been prepared and Electropharyngeograms (EPGs) have been recorded using an Axopatch-1D amplifier (Axon instruments). […] The number of ultra short EPGs (10-20 ms) and normal EPGs (100-200 ms) has been analyzed and given as ratio in percentage. […] In addition standard qRT-PCR confirmed the presence of the human Kv4.3 transgene in UG1755 as well as human Kv4.3 protein has been detected with the human Kv4.3 antibody P 0358 in the pharynx of UG1755 animals.
Introducing the human Kv4.3 channel into the C. elegans pharynx influences the C. elegans action potential in a characteristic fashion. […] The pumping end-point can be technically translated into a high-throughput read-out by the use of a pro-fluorescent dye. […] After a defined incubation period, the change of fluorescence intensity in the intestine can be measured with a plate reader.

[1] = molecular target: T2, human Kv4.3/KChIP2.2 potassium channel (Homo sapiens, UniProt Q9UK17); test: Whole cell patch clamp, CHO-K1 cells stably expressing Kv4.3/KChIP2.2; type: cell-based; conditions: CHO-K1, 1 μM
T2 construct: expressed in transfected cells
T2 sequence (Q9UK17 1-655): T1 sequence (Q9UK17 1-655)
T2 sequence (Q9NS61 1-270 partner): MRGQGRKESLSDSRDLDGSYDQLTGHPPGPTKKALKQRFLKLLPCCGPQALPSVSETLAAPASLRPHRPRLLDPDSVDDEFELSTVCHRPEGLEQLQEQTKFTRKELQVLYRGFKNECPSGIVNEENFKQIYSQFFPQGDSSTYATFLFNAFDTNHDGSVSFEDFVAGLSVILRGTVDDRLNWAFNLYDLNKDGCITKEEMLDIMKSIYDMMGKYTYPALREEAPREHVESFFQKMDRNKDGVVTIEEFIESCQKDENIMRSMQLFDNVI
In short: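 Whole-cell patch clamp at 20-25 °C, bath pH 7.4 with 4 mM KCl, pipette 130 mM KCl/10 mM EGTA/5 mM Na2ATP. Compound at […] (≤0.1% DMSO), n=2; pulses from −100 mV to +40 mV for 300 ms at 0.1 Hz, P/n (n=5) leak-corrected, cells with 1–50 nA currents only.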

hERG potassium channel = hERG potassium channel (Homo sapiens, UniProt Q12809); test: Whole cell patch clamp, HEK 293 T-REx HERG cells; conditions: 10 μM
hERG potassium channel, sequence (Q12809 whole entry): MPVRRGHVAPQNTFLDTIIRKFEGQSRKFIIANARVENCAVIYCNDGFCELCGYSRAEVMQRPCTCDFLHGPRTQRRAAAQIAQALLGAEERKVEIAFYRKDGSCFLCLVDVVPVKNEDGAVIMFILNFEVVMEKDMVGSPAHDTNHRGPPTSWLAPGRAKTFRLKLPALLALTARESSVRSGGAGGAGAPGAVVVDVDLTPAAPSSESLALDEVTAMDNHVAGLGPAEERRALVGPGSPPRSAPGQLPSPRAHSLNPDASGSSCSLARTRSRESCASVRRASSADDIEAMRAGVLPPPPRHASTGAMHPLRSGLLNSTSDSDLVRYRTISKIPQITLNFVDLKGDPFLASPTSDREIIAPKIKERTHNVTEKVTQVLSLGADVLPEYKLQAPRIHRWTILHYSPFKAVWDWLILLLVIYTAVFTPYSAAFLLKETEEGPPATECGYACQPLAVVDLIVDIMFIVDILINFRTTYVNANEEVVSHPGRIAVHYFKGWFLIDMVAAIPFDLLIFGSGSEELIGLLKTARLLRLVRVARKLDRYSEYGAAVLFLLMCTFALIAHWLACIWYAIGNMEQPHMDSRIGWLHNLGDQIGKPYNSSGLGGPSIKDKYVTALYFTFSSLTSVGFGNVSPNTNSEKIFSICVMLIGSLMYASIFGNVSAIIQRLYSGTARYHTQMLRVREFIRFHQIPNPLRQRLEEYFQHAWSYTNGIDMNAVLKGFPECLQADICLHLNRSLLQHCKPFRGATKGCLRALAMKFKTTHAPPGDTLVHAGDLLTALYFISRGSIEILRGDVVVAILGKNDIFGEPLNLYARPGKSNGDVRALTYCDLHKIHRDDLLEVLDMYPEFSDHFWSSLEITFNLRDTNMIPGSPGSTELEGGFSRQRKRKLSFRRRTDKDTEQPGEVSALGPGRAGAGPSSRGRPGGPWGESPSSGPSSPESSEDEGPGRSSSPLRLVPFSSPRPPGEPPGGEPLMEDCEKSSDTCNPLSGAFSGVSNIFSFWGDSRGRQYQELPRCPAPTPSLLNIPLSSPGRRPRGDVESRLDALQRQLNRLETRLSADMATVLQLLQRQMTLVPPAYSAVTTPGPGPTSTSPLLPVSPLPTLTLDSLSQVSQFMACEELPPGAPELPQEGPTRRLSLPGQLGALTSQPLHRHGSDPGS

[2] = read-out: Kv4.3 charge in %: remaining current measured after application of the compound and relative to the blank
[3] = read-out: Kv4.3 peak in %: remaining peak height measured after application of the compound and relative to the blank

| remaining activity at 1 µM [1, 2] [%] | remaining activity at 1 µM [1, 3] [%] | melting point [°C] | After Application of Compound Ratio Ultra short to Normal EPGs in % (human Kv4.3; strain UG1755, 100 μM, n = 15, before application 83 ± 13) [%] | SMILES | ultra short action potentials of the human Kv4.3 transgenic C. elegans pharynx (result in words) (human Kv4.3) | hERG (%) (hERG potassium channel) |
| --- | --- | --- | --- | --- | --- | --- |
|  |  |  |  | Nc1ccncc1 [4-aminopyridine] | restored to normal action potentials |  |
| 45 | 88 | 46 to 51.8 |  | COc1ccc(CNC(=O)c2oc3ccccc3c2-n2cccc2)c(OC)c1 [Compound 18, 3-pyrrol-1-yl-benzofuran-2-carboxylic acid 2,4-dimethoxy-benzylamide] |  | 41 |
| 70 | 94 | 110.7 to 111.5 |  | COc1ccc(CNC(=O)c2oc3ccccc3c2C)c(OC)c1 [Compound 43, 3-methyl-benzofuran-2-carboxylic acid 2,4-dimethoxy-benzylamide] |  | 61 |
| 44 | 87 | 150.8 to 152.7 |  | COc1ccc(CNC(=O)c2cc3cc(Cl)ccc3n2C)c(OC)c1 [Compound 19, 5-chloro-1-methyl-1H-indole-2-carboxylic acid 2,4-dimethoxy-benzylamide] |  | 35 |
|  |  |  | 53 ± 24 | O=C(NCC1CCCCN1)c1cc(OCC(F)(F)F)ccc1OCC(F)(F)F (stereo not shown) [Flecainide] | restored to normal action potentials |  |
| 24 | 88 | 139.8 to 140.4 |  | COc1ccc(CNC(=O)c2oc3ccc(Cl)cc3c2C)c(OC)c1 [Compound 16, 5-choro-3-methyl-benzofuran-2-carboxylic acid 2,4-dimethoxy-benzylamide] |  | 47 |
